Earlier results as cited in patent US10481151B2, “Isolation of pulmonary arterial endothelial cells from patients with pulmonary vascular disease and uses thereof” (Allegheny-Singer Research Institute, priority 2012, dated 2019).

Details: short half life, so the drug must be administered intravenously over a prolonged time frame
In the case of `CCCCC[C@H](O)/C=C/[C@@H]1[C@H]2C/C(=C/CCCC(=O)O)O[C@H]2C[C@H]1O` [epoprostenol], the half life is given as “about 6 minutes”. In the case of `CCCCC[C@H](O)CC[C@@H]1[C@H]2Cc3cccc(OCC(=O)O)c3C[C@H]2C[C@H]1O` [treprostinil], the half life is given as “about 6 minutes”. For `CC#CCC(C)[C@H](O)/C=C/[C@@H]1[C@H]2C/C(=C/CCCC(=O)O)C[C@H]2C[C@H]1O` (stereo partly drawn) [iloprost], the half life is given as “about 6 minutes”.
